Results from US20250313574A1, “SIALIC ACID DERIVATIVES AND METHODS OF USING SAME” (EISAI R&D MANAGEMENT CO., LTD., priority 2022, published 2025).

What was measured:
[1] = target: Recombinant human CD33 protein (Homo sapiens (Human), UniProt P20138); test: CD33 competitive binding assay for HTS drug screen (fluorescent multivalent sialic acid probe)
How it was run: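 Inhibition was read as reduced retention of a fluorescent multivalent sialic acid complex (final 5 μM neutravidin, 15 μM A-375, 5 μM biotin-4-FITC) on plate-immobilized human CD33. Compound was added first, the probe followed for 30 min at room temperature in PBS with 0.2% Tween-20 and 0.5% BSA, and FITC was measured after a wash.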

[2] = target: Recombinant Human Siglec-3/CD33 protein (His-CD33) (Homo sapiens (Human), UniProt P20138); test: Differential scanning fluorimetry (DSF) thermal shift assay; format: binding; conditions: difference in thermal melt of CD33 protein (0.5 μM) with 50 μM compound
Sequence of Recombinant Human Siglec-3/CD33 protein (His-CD33) (P20138 18-259): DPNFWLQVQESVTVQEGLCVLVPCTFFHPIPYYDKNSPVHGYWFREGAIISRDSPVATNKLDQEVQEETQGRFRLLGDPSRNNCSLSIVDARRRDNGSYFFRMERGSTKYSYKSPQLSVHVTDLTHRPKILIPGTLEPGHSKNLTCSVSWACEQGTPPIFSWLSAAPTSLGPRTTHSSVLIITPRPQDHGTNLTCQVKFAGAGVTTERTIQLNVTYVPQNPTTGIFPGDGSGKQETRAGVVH

Sequence of Recombinant human CD33 protein (P20138 18-259): as above

Row | SMILES | EC50 [1] [µM] | DSF (dTmD) [2] [°C]
1 | Cc1cc(C(=O)NC[C@@H](O)[C@@H](O)[C@@H]2O[C@@](OC3CCCCC3NC(=O)CNC(=O)OCc3ccccc3)(C(=O)O)C[C@H](O)[C@H]2NC(=O)Cn2cc(C3CCCCC3)nn2)cc(C)c1O (stereo partly drawn) [A-324] | 3.67 | 3.2
2 | Cc1cc(C(=O)NC[C@@H](O)[C@@H](O)[C@@H]2O[C@@](OC3CCCCC3NC(=O)CN(C)C(=O)OCc3ccccc3)(C(=O)O)C[C@H](O)[C@H]2NC(=O)Cn2cc(C3CCCCC3)nn2)cc(C)c1O (stereo partly drawn) [A-325] | 13.2 | 3.3
3 | Cc1cc(C(=O)NC[C@@H](O)[C@@H](O)[C@@H]2O[C@@](OC3CCCCC3NC(=O)CN(C)C(=O)OCc3cccc(C(=O)NC4CC4)c3)(C(=O)O)C[C@H](O)[C@H]2NC(=O)Cn2cc(C3CCCCC3)nn2)cc(C)c1O (stereo partly drawn) [A-326] | 13.6 | 4.0
4 | CNC(=O)c1cccc(COC(=O)NCC(=O)NC2CCCCC2O[C@]2(C(=O)O)C[C@H](O)[C@@H](NC(=O)Cn3cc(C4CCCCC4)nn3)[C@H]([C@H](O)[C@H](O)CNC(=O)c3cc(C)c(O)c(C)c3)O2)c1 (stereo partly drawn) [A-327] | 6.61 | 3.2
5 | Cc1cc(C(=O)NC[C@@H](O)[C@@H](O)[C@@H]2O[C@@](OC3CCCCC3NC(=O)CNC(=O)CC3CCOCC3)(C(=O)O)C[C@H](O)[C@H]2NC(=O)Cn2cc(C3CCCCC3)nn2)cc(C)c1O (stereo partly drawn) [A-328] | 12.3 | 1.4
6 | Cc1cc(C(=O)NC[C@@H](O)[C@@H](O)[C@@H]2O[C@@](OC3CCCCC3NC(=O)CNC(=O)COC3CCCC3)(C(=O)O)C[C@H](O)[C@H]2NC(=O)Cn2cc(C3CCCCC3)nn2)cc(C)c1O (stereo partly drawn) [A-329] | 15.2 | 1.4
7 | Cc1cc(C(=O)NC[C@@H](O)[C@@H](O)[C@@H]2O[C@@](OC3CCCCC3NC(=O)Cn3cc(CNC(=O)c4cccc(C#N)c4)nn3)(C(=O)O)C[C@H](O)[C@H]2NC(=O)Cn2cc(C3CCCCC3)nn2)cc(C)c1O (stereo partly drawn) [A-330] | 4.81 | 5.0
8 | Cc1cc(C(=O)NC[C@@H](O)[C@@H](O)[C@@H]2O[C@@](OC3CCCCC3NC(=O)Cn3cc(Cn4ncc5ccccc5c4=O)nn3)(C(=O)O)C[C@H](O)[C@H]2NC(=O)Cn2cc(C3CCCCC3)nn2)cc(C)c1O (stereo partly drawn) [A-331] | 4.33 | 4.9
9 | Cc1cc(C(=O)NC[C@@H](O)[C@@H](O)[C@@H]2O[C@@](OC3CCCCC3NC(=O)Cn3cc(CNC(=O)c4ccccn4)nn3)(C(=O)O)C[C@H](O)[C@H]2NC(=O)Cn2cc(C3CCCCC3)nn2)cc(C)c1O (stereo partly drawn) [A-332] | 2.3 | 5.4
10 | Cc1cc(C(=O)NC[C@@H](O)[C@@H](O)[C@@H]2O[C@@](OC3CCCCC3NC(=O)Cn3cc(-c4ccccc4)nn3)(C(=O)O)C[C@H](O)[C@H]2NC(=O)Cn2cc(C3CCCCC3)nn2)cc(C)c1O (stereo partly drawn) [A-333] | 12.2 | 4.5
11 | Cc1cc(C(=O)NC[C@@H](O)[C@@H](O)[C@@H]2O[C@@](OC3CCCCC3NC(=O)Cn3cc(CNC(=O)N4CCOCC4)nn3)(C(=O)O)C[C@H](O)[C@H]2NC(=O)Cn2cc(C3CCCCC3)nn2)cc(C)c1O (stereo partly drawn) [A-334] | 7.7 | 2.8
12 | Cc1cc2cc(C)c1OCCCOC[C@H](NC(=O)C1CCCOC1)COC/C=C/C[C@]1(C(=O)O)C[C@H](O)[C@@H](NC(=O)Cn3cc(C4CCCCC4)nn3)[C@@H](O1)[C@H](O)[C@H](O)CNC2=O (stereo partly drawn) [A-335] | 0.601 | 6.4
13 | CC(=O)N[C@H]1[C@H]2O[C@](C(=O)O)(C/C=C/COC[C@@H](NC(=O)[C@@H]3CCCOC3)COCCCOc3c(C)cc(cc3C)C(=O)NC[C@@H](O)[C@H]2O)C[C@@H]1O [A-336] | 4.19 | 3.6
14 | CC(=O)N[C@H]1[C@H]2O[C@](C(=O)O)(C/C=C/COC[C@@H](NC(=O)[C@H]3CCCOC3)COCCCOc3c(C)cc(cc3C)C(=O)NC[C@@H](O)[C@H]2O)C[C@@H]1O [A-337] | 14.1 | 2.2
15 | Cc1cc2cc(C)c1OCCOC[C@@H](NC(=O)C1CCCOC1)COC/C=C/C[C@]1(C(=O)O)C[C@H](O)[C@@H](NC(=O)Cn3cc(C4CCCCC4)nn3)[C@@H](O1)[C@H](O)[C@H](O)CNC2=O (stereo partly drawn) [A-338] | 3.82 | 5.6
16 | CC(=O)N[C@H]1[C@H]2O[C@](C(=O)O)(C/C=C/COC[C@H](NC(=O)C3CCCOC3)COCCOc3c(C)cc(cc3C)C(=O)NC[C@@H](O)[C@H]2O)C[C@@H]1O (stereo partly drawn) [A-339] | 5.91 | 4.4
17 | Cc1cc2cc(C)c1OCCOC[C@@H](NC(=O)C1CCCOC1)COCCCC[C@]1(C(=O)O)C[C@H](O)[C@@H](NC(=O)Cn3cc(C4CCCCC4)nn3)[C@@H](O1)[C@H](O)[C@H](O)CNC2=O (stereo partly drawn) [A-340] | 3.5 | 4.22
18 | Cc1cc2cc(C)c1OCCOC[C@@H](NC(=O)C1CCCOC1)COC/C=C/C[C@]1(C(=O)O)C[C@H](O)[C@@H](NC(=O)Cn3cc(C4CCCCC4)nn3)[C@@H](O1)[C@H](O)[C@H](O)CNC2=O (stereo partly drawn) [A-341] | 9.98 | 2.7

Row | SMILES | EC50 [1] [µM] | DSF (dTmD) [2] [°C]
19 | CC(=O)N[C@H]1[C@H]2O[C@](C(=O)O)(CCCCOC[C@@H](NC(=O)C3CCCOC3)COCCOc3c(C)cc(cc3C)C(=O)NC[C@@H](O)[C@H]2O)C[C@@H]1O (stereo partly drawn) [A-342] | 45.4 | 1.5
20 | CC(=O)N[C@H]1[C@H]2O[C@](C(=O)O)(C/C=C/COC[C@@H](NC(=O)OC(C)(C)C)COCCCOc3c(C)cc(cc3C)C(=O)NC[C@@H](O)[C@H]2O)C[C@@H]1O [A-343] | 6.54 | 4.6
21 | Cc1cc2cc(C)c1OCCCNC(=O)CCCCCCC[C@]1(C(=O)O)C[C@H](O)[C@@H](NC(=O)Cn3cc(C4CCCCC4)nn3)[C@@H](O1)[C@H](O)[C@H](O)CNC2=O [A-344] | 18 | 1.52
22 | Cc1cc2cc(C)c1OCCCNC(=O)CCCCCC[C@]1(C(=O)O)C[C@H](O)[C@@H](NC(=O)Cn3cc(C4CCCCC4)nn3)[C@@H](O1)[C@H](O)[C@H](O)CNC2=O [A-345] | 21.4 | 3.2
23 | Cc1cc2cc(C)c1OCCCCNC(=O)CCCCCC[C@]1(C(=O)O)C[C@H](O)[C@@H](NC(=O)Cn3cc(C4CCCCC4)nn3)[C@@H](O1)[C@H](O)[C@H](O)CNC2=O [A-346] | 13.3 | 3.4
24 | Cc1cc2cc(C)c1OCCNC(=O)CCCCCCCC[C@]1(C(=O)O)C[C@H](O)[C@@H](NC(=O)Cn3cc(C4CCCCC4)nn3)[C@@H](O1)[C@H](O)[C@H](O)CNC2=O [A-347] | 19 | 3.6
25 | CC(=O)N[C@H]1[C@H]2O[C@](C(=O)O)(C/C=C/c3cccc(c3)[C@@H](NC(=O)[C@H]3CCCOC3)CCCCOc3c(C)cc(cc3C)C(=O)NC[C@@H](O)[C@H]2O)C[C@@H]1O [A-348] | 10.1 | 3.6
26 | CC(=O)N[C@H]1[C@H]2O[C@](C(=O)O)(C/C=C/c3cccc(c3)[C@@H](NC(=O)[C@@H]3CCCOC3)CCCCOc3c(C)cc(cc3C)C(=O)NC[C@@H](O)[C@H]2O)C[C@@H]1O [A-349] | 5.24 | 5.5
27 | CC(=O)N[C@H]1[C@H]2O[C@](C(=O)O)(CCCc3cccc(c3)[C@@H](NC(=O)C3CCCOC3)CCCCc3cc(cc(Cl)c3O)C(=O)NC[C@@H](O)[C@H]2O)C[C@@H]1O (stereo partly drawn) [A-351] | 15 | 3.1
28 | CC(=O)N[C@H]1[C@H]2O[C@](C(=O)O)(C/C=C/c3cccc(c3)[C@@H](NC(=O)C3CCCOC3)CCCc3cc(cc(Cl)c3O)C(=O)NC[C@@H](O)[C@H]2O)C[C@@H]1O (stereo partly drawn) [A-352] | 94 | 0.7
29 | CC(=O)N[C@H]1[C@H]2O[C@](C(=O)O)(C/C=C/c3cccc(c3)[C@@H](NC(=O)C3CCCOC3)CCCCc3cc(cc(Cl)c3O)C(=O)NC[C@@H](O)[C@H]2O)C[C@@H]1O (stereo partly drawn) [A-353] | 19 | 3.6
30 | CC(=O)N[C@H]1[C@H]2O[C@](C(=O)O)(C/C=C/CCC[C@@H](NC(=O)[C@@H]3CCCOC3)c3cccc(c3)COc3c(C)cc(cc3C)C(=O)NC[C@@H](O)[C@H]2O)C[C@@H]1O [A-354] | 27.5 | 1.5
31 | CC(=O)N[C@H]1[C@H]2O[C@](C(=O)O)(C/C=C/CCC[C@@H](NC(=O)[C@H]3CCCOC3)c3cccc(c3)COc3c(C)cc(cc3C)C(=O)NC[C@@H](O)[C@H]2O)C[C@@H]1O [A-355] | 35.4 | 1.3
32 | Cc1cc2cc(C)c1OCc1cccc(c1)[C@H](NC(=O)C1CCCOC1)CCC/C=C/C[C@]1(C(=O)O)C[C@H](O)[C@@H](NC(=O)Cn3cc(C4CCCCC4)nn3)[C@@H](O1)[C@H](O)[C@H](O)CNC2=O (stereo partly drawn) [A-356] | 1.51 | 4.8
33 | CC(=O)N[C@H]1[C@H]2O[C@](C(=O)O)(CC/C=C/CO[C@H]3C[C@H](CN3C(=O)C3CCCOC3)OCCOc3c(C)cc(cc3C)C(=O)NC[C@@H](O)[C@H]2O)C[C@@H]1O (stereo partly drawn) [A-357] | 66.1 | 1.1
34 | Cc1cc2cc(C)c1OCCO[C@@H]1C[C@H](OC/C=C/CC[C@]3(C(=O)O)C[C@H](O)[C@@H](NC(=O)Cn4cc(C5CCCCC5)nn4)[C@@H](O3)[C@H](O)[C@H](O)CNC2=O)N(C(=O)C2CCCOC2)C1 (stereo partly drawn) [A-358] | 9.43 | 3.5
35 | Cc1cc2cc(C)c1OCCCNC(=O)[C@H](C)COCCCC[C@]1(C(=O)O)C[C@H](O)[C@@H](NC(=O)Cn3cc(C4CCCCC4)nn3)[C@@H](O1)[C@H](O)[C@H](O)CNC2=O [A-359] | 59.8 | 1.1
36 | CC(=O)N[C@H]1[C@H]([C@H](O)[C@H](O)CNC(=O)c2cc(C)c(O)c(C)c2)O[C@](CO)(CCN2CCOC[C@@]23CCN(C(=O)OC(C)(C)C)C3)C[C@@H]1O [A-360] | > 100 | −0.3
